In general, melting point refers to the temperature, or range, at which the solid turns liquid. Broadly, the IC50 is the concentration at which inhibition is half-maximal. Read a high IC50 as weaker potency in that assay.

For series [1], the system named is Mycobacterium bovis BCG (1173P2). Description: microbe, parasite or virus in culture. The format is cell-based. The settings on record: for MIC: Mycobacterium tuberculosis variant bovis BCG, BCG.
Series [2] can be described thus: Cytotoxicity assay, MTT method. The format is cell-based. The settings on record: mouse, L929 fibroblast cells, Fibroblast L929 cell line. On the procedure:
(§1) The synthesized derivatives were assayed for their toxicity on Fibroblast L929 cell line by MTT [[…]] method. The cells were grown in RPMI1640 medium at 37 °C under 5% CO2 supplemented with 10% heat inactivated fetal bovine serum (FBS), 100 U/mL penicillin and 100 µg/mL streptomycin. Then, the cells were seeded into 96-well plates at a concentration of 6000 cells/well and allowed to incubate for 24 h. The medium was then discarded and different concentrations of test compounds in complete medium were added to each well. […] The produced formazan crystals were dissolved in 100 µL of DMSO. Plates were incubated for 20 min at 37 °C and the optical densities were read at 570 nm with a reference wavelength of 630 nm as background using a spectrophotometer plate reader (Infinite® M200, TECAN). Doxorubicin and cisplatin were used as positive controls and DMSO as the solvent of the test compounds and its final concentration was less than 0.2%. IC50 was calculated by GraphPad Prism 5.04 software. All the tests were performed in triplicates.
On the technique in general: Formazan colour is commonly taken as a measure of viable cells.

Series [3] concerns Fibroblast L929 cell line. Briefly: Cytotoxicity assay, MTT method. As to conditions: 48 h. The format is cell-based. Here is the method: as §1
The mark [4] stands for this setting: 24 h, read-out: Antimycobacterial activity MIC.
[5] abbreviates: 48 h, read-out: Antimycobacterial activity MIC.
Where [6] appears, read: Mycobacterium bovis BCG, read at 24 h after Alamar blue.
Where [7] appears, read: Mycobacterium bovis BCG, read at 48 h after Alamar blue.
The mark [8] stands for this setting: Mycobacterium bovis BCG, reading time not given.

SMILES strings stand for the structures. Values after ≈ are worked out from the molar mass of the structure shown. Read-outs that look alike come from different tables or passages of the source.

With `S=c1[nH]ncn1N=Cc1cccnc1` [IIIb, 4-(pyridin-3-ylmethyleneamino)-1,2,4-triazole-5-thione], the melting point was 157 °C (dec.). Further, the MIC in series [1] (setting [4]) is 125 µg/mL (≈ 609 µM). The MIC in series [1] (setting [5]) is 125 µg/mL (≈ 609 µM). Further, the IC50 at 48 h in series [2] is > 100 µg/mL.
Molecule `Nn1c(Cc2cccs2)n[nH]c1=S` [If, 4-amino-3-(thiophen-2-ylmethyl)-1,2,4-triazole-5-thione] showed a melting point of 154 to 157 °C. The MIC in series [1] (setting [4]) amounted to 62.5 µg/mL (≈ 294 µM). The MIC in series [1] (setting [5]) is 62.5 µg/mL (≈ 294 µM). Moreover, the IC50 at 48 h in series [2] is > 100 µg/mL.
The molecule `Nn1c(C(O)c2ccccc2)n[nH]c1=S` (centres unmarked) [Ie, 4-amino-3-(hydroxy(phenyl)methyl)-1,2,4-triazole-5-thione] showed a melting point of 167 to 170 °C. Moreover, in series [1] (setting [4]), the MIC is 62.5 µg/mL (≈ 281 µM). Moreover, in series [1] (setting [5]), the MIC turned out to be 62.5 µg/mL (≈ 281 µM). Besides, the half-maximal inhibitory concentration (IC50) at 48 h in series [2] is > 100 µg/mL.
In the case of `S=c1[nH]nc2n1N=C(c1ccc(Cl)cc1)CC2` [IIb, 6-(4-chlorophenyl)-7,8-dihydro-[1,2,4]triazolo[4,3-b]pyridazine-3-thione], the melting point is 256 °C (dec.). Moreover, the “antimycobacterial activity (in words)” value in series [1] (Mycobacterium bovis BCG) was “inactive”. Further, in series [1] (setting [4]), the MIC is > 500 µg/mL. Further, the MIC in series [1] (setting [5]) is > 500 µg/mL. The IC50 at 48 h in series [2] is > 100 µg/mL.
As for `CCc1n[nH]c(=S)n1N` [Ic], the “Antimycobacterial activity MIC” value in series [1] (setting [6]) and in series [1] (setting [7]) was 62.5/62.5 µg/mL throughout. The “Cytotoxicity IC50” value in series [3] is >100 µg/mL.
Consider `S=c1[nH]ncn1/N=C/C=C/c1ccccc1` [IIIe, 4-((E)-3-phenylallylideneamino)-1,2,4-triazole-5-thione], for which the MIC in series [1] (setting [4]), in series [1] (setting [5]) and in series [1] (read-out: MIC value) was 62.5 µg/mL (≈ 271 µM) throughout. In series [2], this molecule registered an IC50 at 48 h of 42.6 µg/mL (≈ 185 µM).
The molecule `Nn1c(Cc2c[nH]c3ccccc23)n[nH]c1=S` [Id, 4-amino-3-(indol-3-ylmethyl)-1,2,4-triazole-5-thione] showed a melting point of 172 to 175 °C. Further, the MIC in series [1] (setting [4]) was determined as 62.5 µg/mL (≈ 255 µM). For the same molecule, the MIC in series [1] (setting [5]) was found to be 62.5 µg/mL (≈ 255 µM). Also, the IC50 at 48 h in series [2] was > 100 µg/mL.
With `CC[C@@H](CO)NCCN[C@@H](CC)CO` [Ethambutol, reference compound], the MIC in series [1] (setting [4]) and in series [1] (setting [5]) was 0.75 µg/mL (≈ 3.67 µM) each time.
As to `S=c1[nH]ncn1N=Cc1ccncc1` [IIIc, 4-(pyridin-4-ylmethyleneamino)-1,2,4-triazole-5-thione], the melting point fell in the range of 255 to 256 °C. The MIC in series [1] (setting [4]) was found to be 93.8 µg/mL (≈ 457 µM). The MIC in series [1] (setting [5]) came out at 125 µg/mL (≈ 609 µM). The IC50 at 48 h in series [2] was > 100 µg/mL.
`CC(=O)Nc1ccc(C=Nn2cn[nH]c2=S)cc1` [IIId, 4-(4-acetamidobenzyldeneamino)-1,2,4-triazole-5-thione]: the “Antimycobacterial activity MIC” value in series [1] (setting [6]) and in series [1] (setting [7]) was 125/125 µg/mL in each case. The “Cytotoxicity IC50” value in series [3] is on record as >100 µg/mL.
Regarding `C[S+](C)[O-]` [DMSO], the “Antimycobacterial activity MIC” value in series [1] (Mycobacterium bovis BCG, 24 h, negative control DMSO) is recorded as 6.5/6.5 % v/v; in series [1] (Mycobacterium bovis BCG, 48 h, negative control DMSO) it was 6.5/6.5 % v/v.
In the case of `S=c1[nH]nc2n1N=C(c1ccccc1)CC2` [IIa, 6-phenyl-7,8-dihydro-[1,2,4]triazolo[4,3-b]pyridazine-3-thione], the melting point was 253 °C (dec.). Further, the MIC in series [1] (setting [4]) was found to be 62.5 µg/mL (≈ 271 µM). The MIC in series [1] (setting [5]) is 62.5 µg/mL (≈ 271 µM). The MIC in series [1] (read-out: MIC value) stood at 62.5 µg/mL (≈ 271 µM). Further, the IC50 at 48 h in series [2] is > 100 µg/mL.
As for `S=c1[nH]ncn1N=Cc1ccccn1` [IIIa, 4-(pyridin-2-ylmethyleneamino)-1,2,4-triazole-5-thione], the MIC amounted to 62.5 µg/mL (≈ 305 µM) in series [1] (setting [4]), 125 µg/mL (≈ 609 µM) in series [1] (setting [5]) and 62.5 µg/mL (≈ 305 µM) in series [1] (read-out: MIC value). The IC50 at 48 h in series [2] was > 100 µg/mL.
In series [1] (setting [8]), `Cc1n[nH]c(=S)n1N` [Ib] registered an IC50 value of 31.25 µg/mL (≈ 240 µM) and an MIC value of 31.25 µg/mL (≈ 240 µM). For the same molecule, in series [1] (setting [6]), the “Antimycobacterial activity MIC” value is reported as 31.25/31.25 µg/mL. The “Antimycobacterial activity MIC” value in series [1] (setting [7]) is 31.25/31.25 µg/mL. For the same molecule, the “Cytotoxicity IC50” value in series [3] was >100 µg/mL.
In the case of `Nn1cnnc1S` [Ia, 4-amino-1,2,4-triazole-5-thione], the MIC in series [1] (setting [4]) and in series [1] (setting [5]) was 62.5 µg/mL (≈ 538 µM) in each case. Also, the IC50 at 48 h in series [2] was > 100 µg/mL.

Values taken from PMC4499427 (Iranian Journal of Pharmaceutical Research : IJPR, 2015).
